Measurements as given in patent publication US4829086A, “Soft β-adrenergic blocking agents” (priority 1985, dated 1989).
Counter-ions that a name gives are not always drawn. Like-named read-outs stand apart in the source and are kept apart here.

How the values were obtained:
[1] = system: heart rate response to isoproterenol (β-adrenergic); test: Heart rate response to isoproterenol in rats (initial drug screening); assay type: in vivo, male Spraque-Dawley rats; conditions: 6 mg/kg i.p.; for resting heart rate prior to administration of isoproterenol: mean ± SEM
Text: (§1) Initial Drug Screening Protocol. Thirty-two male Spraque-Dawley rats (Blue Spruce Farms) initially weighing 300-450 gm were divided into seven different groups, each for a different drug to be tested: 12(n=4), 14(n=4), 17(n=5), 13(n=4) and 18(n=3), corresponding to the designated compounds 12, 14, 17, 13 and 18 (number of animals), respectively. The other two groups were controls (n=8, isoproterenol alone pretreated with carrier) and those treated with a known β-blocker, dl-propranolol (n=3). Ech animal was anesthetized with sodium pentobarbital (45 mg/kg) and the carotid artery was cannulated with PE-50 tubing. The cannula was subcutaneously threaded around the neck and exteriorized dorsally between the shoulder blades. Th cannula was filled with a heparin solution (300 μg/mL) and sealed with a solid 22 gauge stylet. The animals were housed in individual stainless steel cages, and two days were allowed for recovery from the surgery. Food and water were provided ad libitum. On the day of the experiment, the blood pressure and heart rate of each rat were monitored with a pressure transducer (Narco-Bio model P-1000) and the data recorded on a four-channel physiograph (Narco-Bio systems Marck IV). One hour was allowed as an equilibration period before any drugs were administered. All beta blockers were administered intraperitoneally at a dose of 6 mg/kg. Compounds 12 and 14 and dl-proranolol were dissolved in normal saline while compounds 13, 17 and 18 were dissolved in an ethanol: water solution (3:1). Depending on the trial, controls were administered the appropriate carrier. One hour after administration of the blocker, isoproterenol (Isuprel®, Wintrop Laboratories) was administered subcutaneously at a dose of 25 μg/kg. Blood pressures and heart rate also were recorded 3, 5, 10, 15, 20, 30, 45 and 60 minutes after isoproterenol administration. Both control and experimental animals were unrestrained and free moving in their home cage throughout the experiment. […] However, significant differences in the mean heart rate response amoung the 7 groups were observed: *p<0.005;**p<0.025. Comparisons between groups were made by the Newman-Keuls procedure with significance set at the 95% confidence interval. […] All data are shown as mean±standard error of the mean.

[2] = Hydrolytic rate in 0.01 N aqueous sodium hydroxide, pH 12.0; assay type: physicochemical; conditions: for Observed pseudo first order hydrolytic rate constant k: 0.01 N NaOH, ± SEM; for Observed pseudo first order hydrolytic rate constant k / half-life: pH 12.0, ionic strength 0.10 M (NaCl), 27.3 ± 0.2° C.; for half-life: 0.01 n naoh, pH 12, 0.01 N NaOH, read-out: Half-life t1/2
Description: (§2) Analytical Methods. A high pressure liquid chromatography (HPLC) method was developed for the determination of the rate constants. The chromatographic analysis was performed in a system consisting of Waters Associates Model 600-A Solvent Delivery System, Model U-6K Injector and Model 440 Dual Channel Absorbance Detector operated at 254 and 280 nm. A 30 cm×3.9 mm (internal diameter) reverse phase μBondpack C18 column (Waters Associates), operated at ambient temperature, was used for all separations. When plasma samples were analyzed, the column was protected with a 2.3 cm×3.9 mm (internal diameter) Guard Column (Waters) packed with μBondpack C18/Corasil packing material. The mobile phase used for the separation of 17 and its degradation product, 5, consisted of water, 1-hexane sulfonic acid in acetic acid (B-6 reagent, Waters), 0.1M triethanolamine and methanol (100:1:100:799). […] For the separation of compounds 10-16 and 18 and their degradation product 5, a mobile phase consisting of water, 1-hexane sulfonic acid in acetic acid (B-6 reagent, Waters), 0.1M triethanolamine and methanol (390:1:10:599) was used.
(§3) Determination of the Hydrolytic Rate Constants in Aqueous Solutions. A 0.01M phosphate buffer and 0.01N sodium hydroxide solution were prepared from freshly distilled deionized water. This ionic strength was maintained at 0.1M with sodium chloride. The pH of the phosphate buffer was determined at 37.0° C. with a pH meter standardized at this temperature. For determination of the hydrolytic rate constants, a fresh concentrated solution of the ester in methanol was added to the hydrolytic medium previously equilibrated to the desired temperature and mixed thoroughly to result in an initial concentration of about 5×10^-4 mol. liter^-1. All reactions were run under pseudo first order conditions. Samples of 25 μL were injected into the column at various time intervals and the pseudo first order rate constants were determined from disappearance of the compound by linear regression of natural logarithm of the peak height versus time plots. The half-life and standard error of the rate constant were calculated for each run.

[3] = Enzymatic hydrolytic cleavage in human plasma; assay type: in vitro ADME; conditions: for Observed first order hydrolytic rate constant k: ± SEM; for half-life at 1000 µM: human, plasma; for hydrolysis in human plasma: three hours where stated
Description: as §2, §3
Determination of the Enzymatic Hydrolytic Cleavage Rates in Human Plasma. The freshly collected plasma used was obtained from the Civitan Regional Blood Center, Inc. (Gainesville, Fla.) and contained about 80% plasma diluted with anticoagulant citrate phosphate dextrose solution, U.S.P. The plasma was stored in a refrigerator and used within one week from the date it was collected.
A portion of 50 μL of a freshly prepared solution of the compound in methanol was added to 10 mL plasma, previously equilibrated at 37.0° C. in a water bath, and mixed thoroughly to result in an initial concentration of 1×10^-3 mol. liter^-1. One mL samples of plasma were withdrawn from the test medium, mixed immediately with 4.0 mL ice cold 95% v/v ethanol, centrifuged and the supernatant analyzed by HPLC. The first order hydrolytic rate constant was determined as before in the aqueous solutions and the results are listed in TABLE II below.

[4] = system: heart rate response to isoproterenol (β-adrenergic); test: Cardiovascular experiments in dogs: blockade of isoproterenol heart rate response; assay type: in vivo, mongrel dogs; conditions: for Duration, Mean (time at which response to isoproterenol had returned to control levels) / Duration, Range (time at which response to isoproterenol had returned to control levels) / Maximal blockade, Mean (time necessary to reach maximal blockade) / Maximal blockade, Range (time necessary to reach maximal blockade): 1 mg/kg i.v.; for Maximal blockade, Mean (time necessary to reach maximal blockade) / Maximal blockade, Range (time necessary to reach maximal blockade): 15 minute measurements
Description: Method. Healthy, mongrel dogs were anesthetized with a combination of morphine sulfate (2.0 mg/kg, subcutaneously) followed in 20 minutes with pentabarbital sodium (15 mg/kg, intravenously). Supplemental pentabarbital was given as necessary. A femoral vein was catheterized with polyethylene tubing to the level of the heart for injecting drug solutions. A polyethylene tube filled with heparinized saline was inserted through the femoral artery and advanced to the thoracic aorta for the measurement of arterial pressure. The left carotid artery was cannulated with a Millar® transducer-tip catheter for measurement of left ventricular pressure (LVP). The rising slope of the LVP signal was differentiated to give dP/dt, an estimate of myocardial contractility. Heart rate was determined via a Grass cardiotachometer triggered by the R wave of the lead II EKG. All variables were recorded on a Grass polygraph.
Dose-response curves were constructed for each experimental variable to graded i.v. doses of the β-adrenergic agonist, isoproterenol. A period of 3-5 minutes was allowed after each injection for variables to return to base-line. Following this, one of the four experimental β-adrenergic blocking agents was given i.v. over a one-minute period. Abbreviated dose-response curves (2-3 dose points) were again constructed to isoproterenol at 15, 30, 45, 60, 75 and 90 minutes after the administration of the test blockers. Using a 50-beat per minute (bpm) increase in heart rate as criteria, the degree of blockade was determined by dividing the dose of isoproterenol needed to produce a 50 bpm increase at various times following administration of an antagonists by the dose needed for this effect during the control period. The doses of the experimental β-adrenergic antagonists given were determined from previous experiments to produce an approximate two- or four-fold blockade of the heart rate response to isoproterenol.

[5] = system: blood pressure response to isoproterenol; test: Blood pressure response to isoproterenol in rats; assay type: in vivo, male Spraque-Dawley rats; conditions: 6 mg/kg i.p.
Text: as §1
Symbols are the same as those described for FIG. 1. […] Data are shown as mean±standard error of the mean.

[6] = 37.0 ± 0.1° C., read-out: Half-life t1/2

Observed pseudo first order hydrolytic rate constant k [2] | half-life [2] | Observed first order hydrolytic rate constant k ([3]; 37.0 ± 0.1° C.) | half-life at 1000 µM [3, 6] | Structure (SMILES) | resting heart rate prior to administration of isoproterenol [1] | Duration, Mean (time at which response to isoproterenol had returned to control levels) [4] | Duration, Range (time at which response to isoproterenol had returned to control levels) [4] | Maximal blockade, Mean (time necessary to reach maximal blockade) [4] | Maximal blockade, Range (time necessary to reach maximal blockade) [4] | also measured
2.07 ± 0.03 × 10^-2 min^-1 | 33.5 min | 0.414 ± 0.001 × 10^-2 min^-1 | 167 min | CC(C)NCC(O)COc1ccc(CC(=O)OC(C)C)cc1 (centres unmarked) [Compound 12, Isopropyl 4-(2-hydroxy-3-isopropylamino)propoxyphenylacetate] | 345±19 beat/minute | – | – | – | – | hydrolyzed up to x times more slowly than many of the other esters [3]: up to 100 times
– | – | – | – | CC(C)NCC(O)COc1cccc2ccccc12 (centres unmarked) [propranolol, reference compound] | – | – | – | – | – | mean heart rate response to isoproterenol, comparison between groups ([1]; 1 hour before isoproterenol 25 μg/kg s.c., Newman-Keuls, first 20 minutes (17) or first 30 minutes (propranolol)): significantly different for the first 30 minutes; mean heart rate response to isoproterenol vs groups treated with compound 12 and 18 ([1]; 10 through 45 minutes following isoproterenol): significantly different than the groups treated with compound 12 and 18
7.19 ± 0.04 × 10^-2 min^-1 | 9.64 min | 0.351 ± 0.019 min⁻¹ | 1.98 min | CCCCOC(=O)Cc1ccc(OCC(O)CNC(C)(C)C)cc1 (centres unmarked) [Compound 18, n-Butyl 4-(2-hydroxy-3-tert-butylamino)propoxyphenylacetate oxalate hydrate] | 307±7 beat/minute | – | – | – | – | hydrolysis in human plasma ([3]; 37.0 ± 0.1° C.): did not affect the hydrolysis rates
4.96 ± 0.03 × 10^-2 min^-1 | 14 min | 1.46 ± 0.15 min⁻¹ | 0.47 min | CC(C)NCC(O)COc1ccc(CC(=O)OC2CCCCC2)cc1 (centres unmarked) [Compound 15, Cyclohexyl 4-(2-hydroxy-3-isopropylamino)propoxyphenylacetate oxalate 3/4 hydrate] | – | ~ 85 min | 75 to 90 min | 20 min | 15 to 30 min | half-life at 1000 µM ([3]; shortest, read-out: plasma hydrolytic half-life): < 1 min; duration of action ([4]; i.v.): longest duration of action; time after administration at which antagonism dissipated / heart rate responsiveness returned to control ([4]; i.v.): approximately 90 minutes; β1-antagonist activity / blocking of cardiac effects of isoproterenol ([4]; i.v., FIG. 4): most potent in blocking the cardiac effects of isoproterenol
0.117 ± 0.001 min⁻¹ | 5.91 min | 0.238 ± 0.010 min⁻¹ | 2.91 min | CCOC(=O)Cc1ccc(OCC(O)CNC(C)C)cc1 (centres unmarked) [Compound 10, Ethyl 4-(2-hydroxy-3-isopropylamino)-propoxyphenylacetate] | – | ~ 50 min | 45 to 60 min | 15 min | 15-15 min | –
– | – | 1.64 ± 0.14 × 10^-2 min^-1 | 42.2 min | CC(C)NCC(O)COc1ccc(CC(=O)OC2C(C)CCCC2C)cc1 (centres unmarked) [Compound 16, 2,6-Dimethylcyclohexyl 4-(2-hydroxy-3-isopropylamino)propoxyphenylacetate oxalate hydrate] | – | ~ 65 min | 45 to 90 min | 38 min | 15 to 60 min | hydrolysis kinetics ([2]; pH 12, 1:2 mixture of two isomers): biphastic kinetics; hydrolysis in human plasma ([3]; 37.0 ± 0.1° C., oxalate hydrate): did not hydrolyze in the plasma within 3 hours; duration of action ([4]; i.v.): much more variable and generally longer
9.27 ± 0.07 × 10^-2 min^-1 | 7.48 min | – | – | CCCCOC(=O)Cc1ccc(OCC(O)CNC(C)C)cc1 (centres unmarked) [Compound 13, n-Butyl 4-(2-hydroxy-3-isopropylamino)propoxyphenylacetate] | 340±14 beat/minute | – | – | – | – | control of heart rate 60 minutes after administration ([1]; FIG. 1): effectively control the heart rate; half-life at 1000 µM ([3]; read-out: in vitro plasma half-life): ~1 min; mean change in blood pressure vs propranolol and compound 12-treated groups ([5]; isoproterenol 25 μg/kg s.c., FIG. 3): significantly lower (p<0.15); mean change in blood pressure at 10 minutes vs compound 12-treated group ([5]; 10 minutes after isoproterenol): different from the compound 12-treated group; mean change in blood pressure at 10 minutes vs compound 18 group ([5]; 10 minutes after isoproterenol): significantly different from the group treated with compound 18; mean change in blood pressure at 15 minutes vs compound 12, 18 and control vehicle ([5]; 15 minutes after isoproterenol): significantly different from groups pretreated with compound 12, 18 and the control vehicle
– | – | – | – | CC(C)NCC(O)COc1cccc2ccccc12 (racemic) [d,l-propranolol, dl-propranolol, reference compound] | 320±23 beat/minute | – | – | – | – | –
